Data as given in patent US12389905B2, “Synergistic mixture of plant defense inductors” (LIDA PLANT RESEARCH S.L., priority 2018, dated 2025).
Several values for one entry are separate records, joined by “and”; a condition that tells them apart may be missing. Equal entries are not always repeated. Where two headings read alike, the source gives them in different places.

How the values were obtained:
Type in all cases: in vivo
[1] = test system: PDF1.2 (PLANT DEFENSIN 1.2) gene; assay: PDF1.2 gene expression (qPCR) in sprayed Arabidopsis thaliana plants
Experimental: Wild-type Arabidopsis thaliana Col-0 seeds were grown in pots under a 16 hours day/8 hours night (long day) photoperiod, with a daytime temperature of 22° C., a night temperature of 20° C., and a relative humidity of 65%. Plants were sprayed with each inductor dissolved in water (inductors alone or in combination). 24 and 48 hours after treatment (hours post treatment, hpt), tissue samples were harvested and gene expression analysis of specific defense marker genes was performed, through quantitative PCR technology (qPCR).
The genes involved in plant defense analyzed were one or more of the following 5: • PR1 (PATHOGENESIS-RELATED PROTEIN 1). AGI code: AT2G14610 • PDF1.2 (PLANT DEFENSIN 1.2). AGI code: AT5G44420 • PR2 (PATHOGENESIS-RELATED PROTEIN 2; BETA-1,3-GLUCANASE 2). AGI code: AT3G57260 • PR5 (PATHOGENESIS-RELATED GENE 5). AGI code: AT1G75040 • ICS1 (ISO[…] 1). AGI code: AT1G74710
UBC21 (UBIQUITIN-CONJUGATING ENZYME 21; AGI code: AT5G25760) was the normalization (or housekeeping) gene used.
PR1 (Salicylic acid-signaling pathway marker gene) and PDF1.2 (Jasmonic acid-signaling pathway marker gene) are important marker genes of plant defense system, because they are necessary to plant defense mechanisms activation.
In order to evaluate if there is a synergistic effect between different possible combinations, Limpel/Colby's formula was used. This formula is used to calculated the expected activity of combinations containing two active ingredients, A and B: Expected (E)=A+B−(A×B/100) Wherein, • A=observed gene activation of active component A at the same concentration as used in the mixture • B=observed gene activation of active component B at the same concentration as used in the mixture
When the activity found experimentally (observed) is greater than the value of E, said activity should be considered as being a synergistic effect, and Synergy Factor (F) is >1: Synergy Factor (F)=Observed activity/Expected activity (E)
In the following: • OV: Observed gene activation value • CEV: Colby expected gene activation value with the mixture [CEV=A+B−(A×B/100)] Synergy Factor (F)=OV(A+B)/CEV(A+B) • hpt: hours post treatment.

[2] = test system: PR1 (PATHOGENESIS-RELATED PROTEIN 1) gene; assay: PR1 gene expression (qPCR) in sprayed Arabidopsis thaliana plants
[3] = test system: Pseudomonas cannbina pv. alisalensis on Chinese cabbage; details: for Percentage of disease control B: in vivo
[4] = test system: Phakopsora pachyrhizi on soybean; assay: Asian rust on soybean, greenhouse disease control; details: B alone 100 ppm, leaf spray
Experimental: (§1) The experiments were carried out under controlled greenhouse conditions. The effects of temperature, humidity and light conditions in the greenhouse chambers were adjusted according to host plants and pathogens needs.
(§2) The efficacy or disease control value (W) was calculated according to Abbott's formula: W=(1−x/y)×100 wherein • x=percentage of fungal or bacterial infection in treated plants • y=percentage of fungal or bacterial infection in untreated control plants
(§3) An efficacy of 0 means the infection level of the treated plants corresponds to that of the untreated control plants; and efficacy of 100 means that the treated plants are not infected.
In order to evaluate if there is a synergistic effect between different possible combinations, Limpel/Colby's formula was used. This formula is used to calculated the expected disease control value of combinations containing two active ingredients, A and B: Expected (E)=A+B−(A×B/100) wherein, • A=observed disease control value of component A, at the same concentration as used in the mixture • B=observed disease control value of component B, at the same concentration as used in the mixture
When the disease control value found experimentally (observed) with the combination is greater than the value of E, said activity should be considered as being a synergistic effect, and Synergy Factor (F) is >1: Synergy Factor (F)=Observed disease control value/Expected disease control value (E)
As above, in the following Tables: • OV: Observed control value • CEV: Colby expected control value with the mixture [CEV=A+B−(A×B/100)] Synergy Factor (F)=OV(A+B)/CEV(A+B) 1. Podosphaera xanthii on Cucumber
1.5-leaf stage soybean plants (cv. Tsurunoko-daizu), grown in pots under controlled conditions, were treated by spraying of the leaves with the mixture in question, dispersed in an aqueous solution. After 7 days, plants were inoculated and infected with a spore suspension of Phakopsora pachyrhizi(1×10^6 uredospores/ml), and they were kept in a growth chamber at 25° C. and 90% RH. 10 days after pathogen inoculation, infection levels were assessed and percentages of disease control and expected values were calculated according to Abbott's and Colby's formulas, respectively.

[5] = test system: Pyricularia oryzae on rice; details: soil drench
[6] = test system: Podosphaera xanthii on cucumber; assay: Powdery mildew on cucumber, greenhouse disease control
Experimental: as §1, §2, §3
(§4) In order to evaluate if there is a synergistic effect between different possible combinations, Limpel/Colby's formula was used.
(§5) Synergy Factor (F)=OV(A+B)/CEV(A+B) 1. Podosphaera xanthii on Cucumber
1.2-leaf stage cucumber plants (cv. Suzunari-suyo), grown in pots under controlled conditions, were treated by spraying of the leaves or by soil drenching with the mixture in question, dispersed in an aqueous solution. Plants were kept in a growth chamber at 25° C. and 80% RH. After 7 days, plants were inoculated and infected with a spore suspension of Podosphaera xanthii, and, 10 days after pathogen inoculation, infection levels were assessed and percentages of disease control and expected values were calculated according to Abbott's and Colby's formulas, respectively.

[7] = test system: Pseudomonas syringae pv. Lachrymans on cucumber; assay: Bacterial spot on cucumber, greenhouse disease control; details: spray, 100 ppm
Experimental: as §1, §2, §3, §4, §5
1.2-leaf stage cucumber plants (cv. Suzunari-suyo), grown in pots under controlled conditions, were treated by spraying of the leaves with the mixture in question, dispersed in an aqueous solution. After 2 days, plants were inoculated and infected with an aqueous suspension of Pseudomonas syringae pv. Lachrymans (1×10^8 cfu/ml), and they were kept in a growth chamber at 25° C. and 90% RH. 7 days after pathogen inoculation, infection levels were assessed and percentages of disease control and expected values were calculated according to Abbott's and Colby's formulas, respectively.

[8] = Combinations with Chitooligosaccharides
[9] = Test 3 (soil drench treatment), 100 ppm
[10] = Test 4 (spray treatment), 100 ppm

2-amino-3,5-dichlorobenzoic acid (3,5-dichloroanthranilic acid)
PDF1.2 gene activation OV A or B (single component) ([1]; 25 ppm, 48 hpt): 5.70 n-fold | PR1 gene activation OV A or B (single component) ([2]; 25 ppm, 24 hpt): 4.61 n-fold | PR1 gene activation OV A or B (single component) ([2]; 25 ppm, 48 hpt): 4.14 n-fold

O=C(O)c1cc(Cl)nc(Cl)c1 [2,6-Dichloroisonicotinic acid, 2,6-dichloro-isonicotinic acid]
PDF1.2 gene activation OV A or B (single component) ([1]; 75 ppm, 24 hpt): 5.13 n-fold | PDF1.2 gene activation OV A or B (single component) ([1]; 75 ppm, 48 hpt): 1.68 n-fold | PR1 gene activation OV A or B (single component) ([2]; 75 ppm, 24 hpt): 15.45 n-fold | PR1 gene activation OV A or B (single component) ([2]; 75 ppm, 48 hpt): 26.64 n-fold | Percentage of disease control OV A or B (single component) ([3]; 300 ppm): 83% | Percentage of disease control B [3]: 83%

O=C(O)CCCCCCCC(=O)O [Azelaic acid, azelaic acid]
PDF1.2 gene activation OV A or B (single component) ([1]; 200 ppm, 24 hpt): 331.01 n-fold | PDF1.2 gene activation OV A or B (single component) ([1]; 200 ppm, 48 hpt): 87.56 n-fold

CC(N)CC(=O)O (stereo not drawn) [Beta-Aminobutyric acid, beta-aminobutyric acid]
PDF1.2 gene activation OV A or B (single component) ([1]; 100 ppm, 48 hpt): 4.37 n-fold | Percentage of disease control B [4, 8]: 0% | Percentage of disease control B ([5]; Test 3, B alone 300 ppm): 0% | Percentage of disease control OV A or B (single component) ([6]; Test 4 (spray treatment), 300 ppm): 20% | PR1 gene activation OV A or B (single component) ([2]; 100 ppm, 24 hpt): 2.53 n-fold | PR1 gene activation OV A or B (single component) ([2]; 100 ppm, 48 hpt): 8.50 n-fold | Percentage of disease control B [3]: 46%

O=S1(=O)N=C(OCc2snc(Cl)c2Cl)c2ccccc21 [Dichlobentiazox]
Percentage of disease control B [4, 8]: 53% | Percentage of disease control OV A or B (single component) [6, 9]: 0% | Percentage of disease control OV A or B (single component) ([3]; 100 ppm): 0% | Percentage of disease control B [3]: 0%

N#Cc1ccccc1NC(=O)c1snc(Cl)c1Cl [Isotianil, isotianil]
PDF1.2 gene activation OV A or B (single component) ([1]; 30 ppm, 24 hpt): 18.22 n-fold | PDF1.2 gene activation OV A or B (single component) ([1]; 30 ppm, 48 hpt): 57.21 n-fold | Percentage of disease control B ([4]; Combinations with Carrageenan): 20% | Percentage of disease control B [4, 8]: 20% | Percentage of disease control B ([4]; Combinations with Laminarin): 20% | Percentage of disease control B ([5]; Test 3, B alone 100 ppm): 77% | Percentage of disease control OV A or B (single component) [6, 10]: 10%

CC/C=C\CC1C(=O)CCC1CC(=O)OC (centres unmarked) [Methyl jasmonate, methyl jasmonate]
PDF1.2 gene activation OV A or B (single component) ([1]; 600 ppm, 24 hpt): 6.93 n-fold | PR1 gene activation OV A or B (single component) ([2]; 600 ppm, 24 hpt): 1.10 n-fold | PR1 gene activation OV A or B (single component) ([2]; 600 ppm, 48 hpt): 36.36 n-fold

C=CCOC1=NS(=O)(=O)c2ccccc21 [Probenazole]
Percentage of disease control B [4, 8]: 7% | Percentage of disease control B ([4]; Combinations with Laminarin): 7% | Percentage of disease control B ([5]; Test 3, B alone 100 ppm): 71% | Percentage of disease control B ([5]; Test 4, B alone 100 ppm): 71% | Percentage of disease control OV A or B (single component) [6, 9]: 0% | Percentage of disease control OV A or B (single component) ([7]; Test 2): 45% | Percentage of disease control OV A or B (single component) ([7]; Test 3): 45% | PR1 gene activation OV A or B (single component) ([2]; 100 ppm, 48 hpt): 102.9 n-fold and 102.90 n-fold | Percentage of disease control OV A or B (single component) ([3]; 100 ppm): 25% | Percentage of disease control B [3]: 25%

O=C(O)c1ccccc1O [Salicylic acid, salicylic acid]
PDF1.2 gene activation OV A or B (single component) ([1]; 100 ppm, 24 hpt): 12.69 n-fold | PDF1.2 gene activation OV A or B (single component) ([1]; 100 ppm, 48 hpt): 7.80 n-fold | PR1 gene activation OV A or B (single component) ([2]; 100 ppm, 24 hpt): 87.08 n-fold | PR1 gene activation OV A or B (single component) ([2]; 100 ppm, 48 hpt): 58.77 n-fold

Cc1ccc(NC(=O)c2snnc2C)cc1Cl [Tiadinil, tiadinil]
PDF1.2 gene activation OV A or B (single component) ([1]; 45 ppm, 24 hpt): 189.33 n-fold | Percentage of disease control B ([5]; Test 3, B alone 100 ppm): 80% | Percentage of disease control OV A or B (single component) [6, 10]: 0%

Cc1ncc(C[n+]2csc(CCO)c2C)c(N)n1 [Vitamin B1, vitamin B1]
PDF1.2 gene activation OV A or B (single component) ([1]; 8000 ppm, 24 hpt): 231.82 n-fold | PDF1.2 gene activation OV A or B (single component) ([1]; 8000 ppm, 48 hpt): 319.68 n-fold | PR1 gene activation OV A or B (single component) ([2]; 8000 ppm, 24 hpt): 8.35 n-fold

Flagellin
PDF1.2 gene activation OV A or B (single component) ([1]; 2.3 ppm, 24 hpt): 1.44 n-fold | PDF1.2 gene activation OV A or B (single component) ([1]; 2.3 ppm, 48 hpt): 0.94 n-fold | PR1 gene activation OV A or B (single component) ([2]; 2.3 ppm, 24 hpt): 2.05 n-fold | PR1 gene activation OV A or B (single component) ([2]; 2.3 ppm, 48 hpt): 5.89 n-fold
